The source of these data is publication PMC4369186 (European journal of pharmacology, 2015).

One may read the pKi as the Ki on a negative log10 scale, so that one unit is a factor of ten.

Molecules are shown by their SMILES. pKi: −log10 of the molar value. Like-named read-outs stand apart in the source and are kept apart here.

For this experiment, the target named is T1, hVAChT (Homo sapiens, UniProt Q16572).
T1 sequence (Q16572 1-532): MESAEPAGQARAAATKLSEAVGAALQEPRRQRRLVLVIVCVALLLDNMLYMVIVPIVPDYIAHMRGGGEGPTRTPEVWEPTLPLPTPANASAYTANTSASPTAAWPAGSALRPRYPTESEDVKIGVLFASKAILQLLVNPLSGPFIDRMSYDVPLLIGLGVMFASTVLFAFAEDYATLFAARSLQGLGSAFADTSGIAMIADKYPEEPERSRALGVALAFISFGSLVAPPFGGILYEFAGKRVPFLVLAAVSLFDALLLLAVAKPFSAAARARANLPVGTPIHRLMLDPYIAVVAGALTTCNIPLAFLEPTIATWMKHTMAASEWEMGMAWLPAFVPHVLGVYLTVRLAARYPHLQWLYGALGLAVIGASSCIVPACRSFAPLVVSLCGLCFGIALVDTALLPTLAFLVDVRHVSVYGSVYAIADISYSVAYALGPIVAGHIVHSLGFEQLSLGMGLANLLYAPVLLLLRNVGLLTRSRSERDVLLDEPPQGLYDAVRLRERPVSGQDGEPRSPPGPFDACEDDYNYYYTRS
The experiment in a line: Competitive binding assay with. Conditions: for inhibition of (-)-[^3H]TZ659 binding to VAChT: competitive binding studies, other CNS receptor ligands.

[1] abbreviates: radioligand (-)-[^3H]TZ659 2 nM, test ligands 0.1 nM to 10 μM, 60 min, 25 °C.

With `CCc1cc(Cl)c(OC)c(C(=O)NC[C@@H]2CCCN2CC)c1O` [S-(-)-Eticlopride], the “inhibition of (-)-[^3H]TZ659 binding to VAChT” value (“inhibition” for short) was “No inhibition”. The pKi under setting [1] was < 6.00.

As to `CC(C)=CCN1CC[C@]2(C)c3cc(O)ccc3C[C@H]1[C@H]2C` [(+)-Pentazocine], the pKi is < 6.00 and the “inhibition” value is “No inhibition”.

Take `COc1ccccc1N1CCN(CC(C(=O)NC(C)(C)C)c2ccccc2)CC1` (stereo not drawn) [WAY-100135]: the “inhibition” value is given as “No inhibition”. In addition, the pKi under setting [1] is < 6.00.

On to `COc1cc2c(cc1OC)CN(CCCCNC(=O)c1cc(C)ccc1OCCF)CC2` [ISO-1], for which the “inhibition” value is reported as “No inhibition”. Besides, under setting [1], the pKi was < 6.00.

With `Cn1cc(-c2ccncc2)c(-c2ccc(OCc3ccc4ccccc4n3)cc2)n1` [MP-10], the “inhibition” value is “No inhibition”. In addition, the pKi under setting [1] was < 6.00.

On to `COc1cc2c(cc1OC)[C@H]1C[C@@H](O)[C@H](CC(C)C)CN1CC2` [DTBZ], for which the “inhibition” value was “No inhibition”. Also, the pKi under setting [1] was < 6.00.
